System: P. falciparum 3D7 growth, pLDH absorbance
Assay: blood-stage malaria parasite growth potency – strain 3D7, dose response (AID 2305)

| Structure (SMILES) | IC50 |
| --- | --- |
| CC(C)C[C@H]1C(=O)N[C@H](C2Cc3ccccc3C2)C(=O)N1[C@@H](C(=O)Nc1ccccc1OCc1ccccc1)c1ccc(F)cc1F | 1.02 µM |
| CC(=O)Nc1ccc(CCNC(C)Cc2ccc(C(=O)Nc3ccc(CC(C)NCCc4cccc(Cl)c4)cc3)cc2)cc1 (stereo unspecified) | 0.33 µM |
| N#Cc1nc2ccc(OCCN(Cc3ccccc3C(F)(F)F)c3ccc(C#N)c(C(F)(F)F)c3)cc2s1 | 0.86 µM |
| CCCCCCn1c(Sc2ccc(C#N)c([N+](=O)[O-])c2)nnc1-c1cccc(Cl)c1 | 0.61 µM |
| Cc1cnc(C(=O)Nc2ccc(-c3cccc(-c4nc5ccccc5[nH]4)c3)cc2)cn1 | 0.83 µM |
| CN1CCN(CC2(Nc3nccc(NCc4ccc(Cl)cc4Cl)n3)CCCCC2)CC1 | 0.59 µM |
| CC(C)CNCc1cccc(-c2ccc(CNc3ccc(C(=O)c4ccccc4)cc3)cc2)c1 | 0.76 µM |
| CCCCOC(C(=O)OCC1CCCN1C)(c1ccccc1)c1ccccc1 (stereo unspecified) | 0.79 µM |
| CC(Cc1ccc(S(=O)(=O)N(C(C)C)C(C)C)cc1)NCC(O)c1cccc(C(F)(F)F)c1 (stereo unspecified) | 0.69 µM |
| CN1CCCC(CN2CCN(Cc3ccc(-c4ccc(-c5nc6ccc(F)cc6[nH]5)cc4)cc3)CC2)C1 (stereo unspecified) | 0.12 µM |
| O=C(NC1CC1)C1CCN(Cc2cc3ccccc3n2Cc2ccc(Cl)cc2)CC1 | 0.49 µM |
| O=C(NCCNc1ccnc(Nc2ccc(F)cc2)n1)Nc1ccccc1F | 0.76 µM |
| Cc1nnsc1C(=O)Nc1ccc(-c2ccc(-c3nc4c(C)cccc4[nH]3)s2)cc1 | 0.59 µM |
| Cc1ccccc1OCC(O)CNC1CCC(NCC(O)COc2ccccc2C)CC1 (stereo unspecified) | 1.19 µM |
| COc1cc(CCCOc2c(N)nc(N)nc2N)cc(OC)c1OC | 1.22 µM |
| Fc1ccc2nc(-c3ccc(-c4cccc(CN5CCN(CCN6CCOCC6)CC5)c4)cc3)[nH]c2c1 | 0.14 µM |
| Cc1ccc(CNC(=O)[C@H](Cc2ccccc2)Nc2cc(C)nc(NCCc3ccc(F)cc3)n2)cc1 | 0.98 µM |
| COc1ccccc1CCNc1ncc(F)c(N[C@@H](Cc2ccccc2)C(=O)NCCc2ccccc2)n1 | 0.96 µM |
| COc1ccc(CNC2Cc3ccccc3C2)cc1-c1ccc(S(=O)(=O)NCc2cccnc2)s1 | 1.11 µM |
| Cc1cc(NC(=O)Nc2ccc(C#N)cc2)c2ccccc2n1 | 0.57 µM |
| CC(C)NCc1ccc(-c2cccc(NC(=O)c3ccc(F)cc3)c2)cc1 | 0.88 µM |
| CCN(CC)CCNc1ccc(Nc2ccnc3cc4ccccc4cc23)cc1 | 0.2 µM |
| CCn1ncc(Cl)c1CN(C)S(=O)(=O)c1ccc(Br)cc1 | 1.02 µM |
| Cc1cc(NN=Cc2ccc(F)cc2)c2cccc(C)c2n1 | 0.78 µM |

| Structure (SMILES) | IC50 |
| --- | --- |
| O=C(Nc1cccc(C(F)(F)F)c1)Nc1nc2ccc([N+](=O)[O-])cc2s1 | 0.69 µM |
| CO[C@H](C)[C@H](NC(=O)[C@H](CC(C)C)[C@H](CCC(F)(F)F)N(O)C=O)C(=O)Nc1nccs1 | 0.11 µM |
| O=C(Nc1cccc(-c2cccc(-c3nc4ccc(C(F)(F)F)cc4[nH]3)c2)c1)c1ccoc1 | 0.28 µM |
| O=C(NC1CCCCC1)N(Cc1ccc(-c2cccc(CNC3CCCC3)c2)cc1)C1CCN(Cc2ccccc2)CC1 | 0.78 µM |
| COc1cc(NC(=O)N2CCOC(CCN3CCC4(CCc5ccccc54)CC3)(c3ccc(Cl)c(Cl)c3)C2)cc(OC)c1OC (stereo unspecified) | 0.16 µM |
| NCc1cccc(-c2ccc3ccnc(N)c3c2)c1 | 0.17 µM |
| COc1ccc(-c2cc(C(=O)N[C@@H](CC3CCCCC3)C(=O)NCCN3CCCCC3)ccc2O)cc1 | 0.95 µM |
| CC(CN1CCN(C)CC1)C(=O)Nc1cccc(-c2ccc(-c3nc4ccc(F)cc4[nH]3)cc2)c1 (stereo unspecified) | 0.81 µM |
| COc1cc(C)nc2ccc(NC(=O)Nc3ccccc3[N+](=O)[O-])cc12 | 0.84 µM |
| COc1c(CNCCCCCCNCc2c(OC)c(OC)c3ccccc3c2OC)c(OC)c2ccccc2c1OC | 0.96 µM |
| Cc1cc(NC(=O)Nc2ccc(C(C)C)cc2)c2ccccc2n1 | 0.66 µM |
| Cc1cc(C(=O)Nc2ccc3c(c2)CCN3C2CCN(Cc3csc4ccccc34)C2)no1 (stereo unspecified) | 0.12 µM |
| COc1ccc(CC2(CO)CCN(Cc3ccc(O)c(Cl)c3)CC2)cc1 | 0.86 µM |
| COc1ccc(CNC(=O)C2Cc3ccccc3CN2Cc2ccc3ccccc3c2)cc1 (stereo unspecified) | 1.1 µM |
| CC(C)NC(C)(C)CN(Cc1ccc(-c2ccc(C(F)(F)F)cc2)cc1)C(=O)Cn1c(CCc2cccc(F)c2F)nc(=O)c2ccccc21 | 0.91 µM |
| CS(=O)(=O)N1CC2(CCN(CCC(NC(=O)NCc3ccc(Cl)c(Cl)c3)c3ccc(Cl)c(Cl)c3)CC2)c2ccccc21 (stereo unspecified) | 0.8 µM |
| Fc1cccc(Nc2nc(NCc3ccc(OCc4ccccc4)cc3)nc(Nc3cccc(F)c3)n2)c1 | 1.18 µM |
| CCCc1cc(Cc2cnc(N)nc2N)cc(CCC)c1OCCCCCC(=O)OCC | 0.05 µM |
| Cc1nc2ccc(NC(=O)c3cc(S(=O)(=O)N(C)C)ccc3Cl)cc2s1 | 0.82 µM |
| Fc1ccc2nc(-c3ccc(-c4ccc(CN5CCCCC5)cc4)s3)[nH]c2c1 | 0.6 µM |
| COc1ccc(CCN(C)CCOc2ccc(NC(=O)COc3ccc4sc5ccccc5c(=O)c4c3)cc2)cc1OC | 1.1 µM |
| OCC1CCN(Cc2cccc(-c3ccc(-c4nc5ccc(C(F)(F)F)cc5[nH]4)cc3)c2)CC1 | 0.66 µM |
| COc1ccc2ncc(Cl)c([C@@H](O)CN3CCC(NCc4cc5c(cn4)OCCO5)CC3)c2c1 | 0.06 µM |
| O=C(Nc1cccc(C(F)(F)F)c1)c1cccc(S(=O)(=O)NCC2CCN(CC3CCCCC3)CC2)c1 | 1.47 µM |

| Structure (SMILES) | IC50 |
| --- | --- |
| O=C(CC1SC(N2N=C(c3cccs3)CC2c2ccccc2)=NC1=O)Nc1ccc(Cl)cc1 (stereo unspecified) | 1.68 µM |
| NOCCCCOc1ccc(Cl)cc1 | 0.78 µM |
| O=C(/C=C/c1cccc(C(F)(F)F)c1)NCCCCCN1CCC(c2c[nH]c3ccccc23)CC1 | 0.84 µM |
| COc1cc(F)c2ncc(Cl)c(CCN3CCC(NCc4ccc5c(c4)NC(=O)CS5)CC3)c2c1 | 0.31 µM |
| c1cncc(Oc2ccc(Nc3ccnc4cc(-c5cccc(CN6CCOCC6)c5)ccc34)cc2)c1 | 0.31 µM |
| Nc1cccc(C=CC(=O)Nc2ccnc3ccccc23)c1 | 1.06 µM |
| Cc1[nH]c(C)c(-c2ccc(OCCOc3ccc(C(F)(F)F)cn3)cc2)c(=O)c1Br | 0.14 µM |
| COc1cccc2c1CCN(CCN1CCC(CNC(=O)c3ccc(-c4ccc(C#N)cc4)cc3)CC1)C2 | 0.76 µM |
| CCn1c(C)cc(C=C2SC(=Nc3ccccc3)NC2=O)c1C | 0.68 µM |
| O=C(Nc1ccc(Cl)c(Cl)c1)Nc1ccc2c(c1)CCNCC2 | 0.53 µM |
| CCCCCCCN1[C@@H]2CC[C@H]1CC(CCOc1ccnc3ccc(OC)cc13)C2 (stereo partly specified) | 0.39 µM |
| O=C(NC1CCN(Cc2ccccc2)CC1)c1csc2nc(-c3ccc(Cl)cc3)cn12 | 0.91 µM |
| COc1ccccc1C1CC(c2ccc(Br)cc2)=NN1C(=O)c1ccccc1 (stereo unspecified) | 1.11 µM |
| O=C(Nc1ccc2nc3n(c(=O)c2c1)CCCCC3)C(=O)N1CCC(Cc2ccccc2)CC1 | 0.76 µM |
| COc1ccc(C(=O)Nc2ccc3nc(N4CCCCC4)cc(C)c3c2)cc1OC | 0.99 µM |
| COc1ccc(CN2CCC(NCc3cccc([N+](=O)[O-])c3)CC2)cc1 | 0.91 µM |
| Cc1cc(N2CC=CCC2)nc(/N=C(\N)Nc2ccc(Br)cc2)n1 | 0.69 µM |
| CC(C)NCc1ccc(-c2cccc(NC(=O)c3ccc(Cl)cc3)c2)cc1 | 0.29 µM |
| COc1cc(NC(=O)Nc2cccc3ccccc23)c(OC)cc1Cl | 0.48 µM |
| Cc1cccc2[nH]c(-c3ccc(-c4cccc(NC(=O)COc5ccccc5C(N)=O)c4)s3)nc12 | 0.73 µM |
| Cc1cc2nc(-c3ccc(/C=C/C(=O)NCc4ccc(Cl)c(Cl)c4)cc3)[nH]c2cc1C | 0.82 µM |
| O=C(NCc1ccco1)c1ccc(S(=O)(=O)c2ccc(Cl)cc2)cc1 | 0.45 µM |
| COc1ccc2nc(C)cc(NN=Cc3ccncc3)c2c1 | 0.7 µM |

Source: PubChem BioAssay AID2305 (GlaxoSmithKline (GSK), 2010)
